Literature values, collected in patent US20030194514A1 (priority 2002, published 2003).

Experiments:
[1] = diluent level of 15%; cited from earlier work
[2] = per Brit. 1,132,417; cited from earlier work
[3] = especially at a dilution level of 20-30%; cited from earlier work

Compound	Judgement as stabilizer for propargyl bromide by impact tests [1]	Effectiveness of the solvent in stabilizing propargyl bromide [2]	Judgement as stabilizer in confinement tests [3]
CC(C)OC(C)C [diisopropyl ether]	appeared promising		
ClC(Cl)Cl [chloroform]	poor stabilizers	ineffective	
C1CCOC1 [tetrahydrofuran]		effective	
xylene		effective	
NC=O [formamide]	poor stabilizers	ineffective	
CCCCCC [hexane]	poor stabilizers	ineffective	
Cc1ccccc1 [toluene]			material of choice
C1COCCO1 [dioxane]		effective	
CCOCC [diethyl ether]	appeared promising		
c1ccccc1 [benzene]	poor stabilizers		
CCO [ethanol]		effective	
